Test results taken from patent US20030055077A1, “Method and compositions for the treatment of allergic conditions using pgd2 receptor antagonists” (priority 2002, published 2003).

Test system: ovalbumin-sensitized guinea pigs
Experiment: Guinea pig allergic rhinitis model: intranasal pressure after nasal ovalbumin challenge
Type: in vivo
Settings: single administration, 60 minutes prior to ovalbumin 1% challenge, AUC 0-30 min
Procedure: Male Hartley guinea pigs (250-500 g) purchased from Charles River (St-Constant, Qc, Canada) were used. They were housed in a temperature and humidity controlled environment, in groups of four or five with food and water available ad libitum. Experimental procedures were approved by the Animal Care Committee at Merck Frosst Centre for Therapeutic Research, in accordance with the guidelines of the Canadian Council on Animal Care.
Sensitization: The animals were injected intrapeRitoneally with 0.5 ml of an ovalbumin solution (100 μg/ml) containing 100 mg/ml aluminum hydroxide in 0.9% saline. […]
Following the surgical preparation, gallamine (2 mg/kg, i.v.) was administered to suppress spontaneous breathing. […] The changes in the intranasal pressure were monitored through a pressure transducer (Validyne DP-45, membrane 6-26, Validyne Corp., Northridge, Calif.) connected to a side arm of the nasal cannula. Values were recorded every 5 seconds using a data acquisition system (Modular Instruments, Malvern, Pa.). […] The changes in intranasal pressure were recorded for 30 minutes following the nasal challenge, using the peak response.
The effects of test compounds were evaluated on the increased intranasal pressure following a nasal challenge with an aerosol of ovalbumin 1% for 3 minutes. […]

Compound | effect on the increase in intranasal pressure produced by aerosol of ovalbumin (1 mg/kg i.p.) | effect on the increase in intranasal pressure produced by aerosol of ovalbumin (5 mg/kg i.p.)
C[S@+]([O-])c1cccc2c3c(n(Cc4ccc(Cl)cc4)c12)[C@@H](CC(=O)O)CCC3 [Compound I, 2-[(1R)-9-(4-chlorobenzyl)-8-((S)-methylsulfinyl)-2,3,4,9-tetrahydro-1H-carbazol-1-yl]acetic acid] | no significant effect | –
COc1ccc(CN(CCN(C)C)c2ccccn2)cc1 [mepyramine] | – | no significant effect
